In experiment [1] the test system is HCC1143. The settings on record: 72 h. As to the method: (§1)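 Drug sensitivity and resistance testing (DSRT) of breast cancer cell lines in 384-well plates, 5 concentrations in 10-fold dilutions over a compound-specific 10,000-fold range. After 72 h, cytotoxicity was read by CellTox Green fluorescence and viability by CellTiter-Glo luminescence (multiplexed), normalised to DMSO and benzethonium chloride controls. EC50 is the inflection point of the fitted dose-response curve (bottom asymptote free, so it can be relative for partial curves) and is censored at the highest tested concentration. Rows with DSS 0 (no meaningful response) were excluded.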

Experiment [2] deals with MDA-MB-468. The following applies: 72 h. How it is done: as §1
The test system of experiment [3] is CAL-51. The settings on record: 72 h. As to the method:
as §1

Experiment [4] deals with BT-549. The settings on record: 72 h. How it is done:
as §1

The next experiment deals with CAL-120. The following applies: 72 h. How it is done: as §1
Experiment [5] deals with MDA-MB-436. The following applies: 72 h. As to the method:
as §1

The test system of experiment [6] is MCF-10A. The following applies: 72 h. How it is done:
as §1

Experiment [7] deals with Hs578T. The following applies: 72 h. As to the method:
as §1

Experiment [8] deals with HDQ-P1. The settings on record: 72 h. As to the method:
as §1

Experiment [9] has as its system MDA-MB-468. The settings on record: 72 h. The essentials: (§2)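 Breast cancer cell lines in 20 µl suspension were seeded onto 384-well plates that already held compound dissolved in 5 µl medium and were incubated for 72 h. Viability was measured by adding 2.5 µl CellTiter-Blue for 2 h at 37 °C and reading fluorescence at 560/590 nm. Each plate was normalised to vehicle and a positive kill control and checked by Z'-factor. EC50 was taken from a fitted percent-inhibition dose-response curve, censored at the highest concentration, and rows with a drug sensitivity score of zero were removed.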
This is another data set of the same source.

Experiment [10] deals with MDA-MB-231. The settings on record: 72 h. Summed up:
as §2

Experiment [11] deals with Hs578T. The settings on record: 72 h. The essentials:
as §2
The source holds these as a separate data set.

Experiment [12] relates to HCC1937. The settings on record: 72 h. Summed up: as §2
Experiment [13] deals with CAL-148. The following applies: 72 h. Summed up:
(§3)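 The plates used were 384-well plates holding compound at 5 concentrations in 10-fold steps across a compound-specific 10,000-fold range, into which breast cancer cell lines were seeded in 20 µl suspension. Following 72 h incubation, CellTox Green fluorescence was read at 485/520 nm, and CellTiter-Glo luminescence was read after 10 min at room temperature. Normalisation on each plate used 0.1 % DMSO and a positive kill control. Dose-response curves gave the EC50, which was censored at the top concentration.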

Experiment [14] has as its system HDQ-P1. The settings on record: 72 h. The essentials:
as §3
This is another data set of the same source.

Experiment [15] concerns MDA-MB-231. The settings on record: 72 h. As to the method: as §1
This is another data set of the same source.

In experiment [16] the test system is CAL-148. The following applies: 72 h. As to the method:
as §1
This is another data set of the same source.

Another experiment has as its system MFM-223. The settings on record: 72 h. How it is done:
as §1

Experiment [17] deals with MDA-MB-453. The following applies: 72 h. How it is done: as §1
Experiment [18] deals with BT-474. The following applies: 72 h. As to the method: as §1
The subject of experiment [19] is HCC1937. The following applies: 72 h. As to the method:
as §1
This is another data set of the same source.

Experiment [20] relates to HCC1599. The following applies: 72 h. The essentials: as §3
For experiment [21], the system named is CAL-85-1. The settings on record: 72 h. Summed up: as §3
Experiment [22] relates to MDA-MB-453. The following applies: 72 h. The essentials: as §3
The source holds these as a separate data set.

The test system of experiment [23] is HCC1937. The settings on record: 72 h. The essentials:
as §3
This is another data set of the same source.

The next experiment concerns SK-BR-3. The settings on record: 72 h. The essentials:
as §2

For experiment [24], the system named is BT-474. The following applies: 72 h. Summed up: as §2
The source holds these as a separate data set.

In experiment [25] the test system is MDA-MB-468. Kind of experiment: normalised response (% of control), CellTiter-Glo; higher = more viable cells (100 = DMSO, 0 = benzethonium chloride kill control). The following applies: incubation time: 72 h. The essentials:
(§4)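 Each entry is the normalised signal at a single concentration within a series. The series comprised 5 concentrations in 10-fold steps over a compound-specific 10,000-fold range, placed in 384-well plates into which breast cancer cell lines were seeded as 20 µl suspension and incubated 72 h. CellTox Green (485/520 nm) fluorescence and then CellTiter-Glo luminescence were read, with signals normalised per plate to 0.1 % DMSO (100) and a positive kill control (0).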
Background: In ATP-based viability assays light output follows the ATP content of the culture.

Another experiment concerns DU-4475. The description is as above. The following applies: incubation time: 72 h. Summed up:
as §4

In experiment [26] the test system is HCC1599. The description is as above. The following applies: incubation time: 72 h. The essentials:
as §4

In experiment [27] the test system is CAL-51. The description is as above. The settings on record: incubation time: 72 h. Summed up: as §4
The subject of experiment [28] is BT-549. The experiment is described as above. The following applies: incubation time: 72 h. Summed up:
as §4

Experiment [29] concerns MDA-MB-231. The description is as above. The settings on record: incubation time: 72 h. Summed up:
as §4

The test system of experiment [30] is CAL-148. Described as above. The following applies: incubation time: 72 h. Summed up: as §4
In experiment [31] the test system is CAL-85-1. Described as above. The following applies: incubation time: 72 h. Summed up:
as §4

For experiment [32], the system named is MDA-MB-436. The experiment is described as above. The settings on record: incubation time: 72 h. The essentials:
as §4

The test system of experiment [33] is MCF-10A. The description is as above. The following applies: incubation time: 72 h. Summed up:
as §4

Experiment [34] concerns HCC1143. The description is as above. The following applies: incubation time: 72 h. The essentials: as §4
Experiment [35] concerns HDQ-P1. The experiment is described as above. The settings on record: incubation time: 72 h. Summed up:
as §4

Experiment [36] relates to HCC1937. The description is as above. The following applies: incubation time: 72 h. The essentials:
as §4

Regarding `Cc1ccc(Nc2nccc(N(C)c3ccc4c(C)n(C)nc4c3)n2)cc1S(N)(=O)=O` [Pazopanib], the “EC50, CellTox Green” value in the experiment with HCC1143 [1] was over 10000 nM.
In the case of `CO[C@@H](C(=O)N1Cc2[nH]nc(NC(=O)c3ccc(N4CCN(C)CC4)cc3)c2C1)c1ccccc1` [Danusertib], the “EC50, CellTox Green” value is 10.2 nM in the experiment with MDA-MB-468 [2]; 348 nM with CAL-51 [3]; over 10000 nM in the experiment with BT-549 [4]; 5630 nM in the experiment with CAL-120; 216 nM in the experiment with MDA-MB-436 [5]; over 10000 nM with MCF-10A [6]. The results for the “EC50, CellTox Green” value in the experiment with Hs578T [7] and in the experiment on HDQ-P1 [8] were 477 nM and 6850 nM, respectively. Moreover, the “EC50, CellTiter-Blue viability” value turned out to be 71.9 nM in the experiment on MDA-MB-468 [9], 1180 nM in the experiment on MDA-MB-231 [10], 1040 nM in the experiment on Hs578T [11] and 344 nM in the experiment on HCC1937 [12]. Also, the “EC50, CellTiter-Glo” value in the experiment with CAL-148 [13] came out at 448 nM; in the experiment on HDQ-P1 [14], 7430 nM.
`CC(=O)OC[C@H]1O[C@@H]([S-])[C@H](OC(C)=O)[C@@H](OC(C)=O)[C@@H]1OC(C)=O.CCP(CC)CC.[Au+]` [Auranofin]: the “EC50, CellTox Green” value with MDA-MB-468 [2] is 412 nM; in the experiment with CAL-51 [3], 186 nM; in the experiment on BT-549 [4] it was 712 nM; with MDA-MB-231 [15], 1330 nM; with CAL-120, over 2500 nM; in the experiment with CAL-148 [16] it was 2060 nM. In addition, the “EC50, CellTox Green” value with MFM-223 is 958 nM; with MDA-MB-453 [17] it was 1590 nM; with HCC1143 [1], over 2500 nM; in the experiment on HDQ-P1 [8] it was 694 nM; in the experiment with BT-474 [18], 646 nM; in the experiment on HCC1937 [19] it was 926 nM. The “EC50, CellTiter-Glo” value in the experiment with HCC1599 [20] was found to be 2110 nM; with CAL-148 [13], 2190 nM; with CAL-85-1 [21], 723 nM; in the experiment with MDA-MB-453 [22], 612 nM; with HDQ-P1 [14], 1120 nM; in the experiment with HCC1937 [23], 552 nM.
Turning to `CS(=O)(=O)N1CCN(Cc2cc3nc(-c4cccc5[nH]ncc45)nc(N4CCOCC4)c3s2)CC1` [GDC-0941], the “EC50, CellTiter-Blue viability” value stood at 1650 nM with MDA-MB-468 [9]; 2240 nM with MDA-MB-231 [10]; 158 nM in the experiment on SK-BR-3; 1460 nM with Hs578T [11]; 770 nM in the experiment on BT-474 [24]; 958 nM in the experiment with HCC1937 [12].
`CC[C@@]1(O)C(=O)OCc2c1cc1n(c2=O)Cc2cc3c(CN(C)C)c(O)ccc3nc2-1` [Topotecan] (100 nM): the normalised response with MDA-MB-468 [25] came to 62.5%; in the experiment on DU-4475, 77.9%; in the experiment with HCC1599 [26], 65.5%; in the experiment on CAL-51 [27] it was 98.2%; in the experiment on BT-549 [28], 84.2%; in the experiment on MDA-MB-231 [29] it was 92.8%. Besides, the normalised response turned out to be 62.4% in the experiment on CAL-148 [30]; 85.7% with CAL-85-1 [31]; 75.2% in the experiment with MDA-MB-436 [32]; 90.2% with MCF-10A [33]; 92.9% in the experiment on HCC1143 [34]; 95.7% in the experiment with HDQ-P1 [35]. In addition, in the experiment with HCC1937 [36], the normalised response stood at 95.7%.
